Experiment: xn = mol fraction of the nth substance listed
Settings: 100 kPa

CC(O)C(=O)[O-].CCOCCn1cc[n+](C)c1 + O
Settings	electrical conductivity [S/m]	viscosity [mPa·s]
288.15 K, x1 = 0.8091	0.243	86.2
288.15 K, x1 = 0.8366	0.214	93.5
288.15 K, x1 = 0.87	0.185	103
288.15 K, x1 = 0.9014	0.157	110.4
288.15 K, x1 = 0.9386	0.127	119.7
288.15 K, x1 = 1	0.082	132.7
293.15 K, x1 = 0.87	0.229	80.3
293.15 K, x1 = 0.9386	0.172	90.8
293.15 K, x1 = 1	0.123	99.1
298.15 K, x1 = 0.8091	0.336	52.9
298.15 K, x1 = 0.8366	0.306	56.21
298.15 K, x1 = 0.9014	0.248	63.93
298.15 K, x1 = 0.9386	0.218	68.22
298.15 K, x1 = 1	0.171	74.1
303.15 K, x1 = 0.8091	0.389	41.86
303.15 K, x1 = 0.8366	0.358	44.21
303.15 K, x1 = 0.87	0.33	47.25
303.15 K, x1 = 0.9014	0.302	49.83
303.15 K, x1 = 1	0.228	56.72
308.15 K, x1 = 0.9014	0.397	37.68
308.15 K, x1 = 0.9386	0.368	40.01
308.15 K, x1 = 1	0.314	43.14
313.15 K, x1 = 0.8091	0.572	25.13
313.15 K, x1 = 0.8366	0.544	26.5
313.15 K, x1 = 0.87	0.516	28.21
313.15 K, x1 = 0.9014	0.488	29.62
313.15 K, x1 = 0.9386	0.463	31.44
313.15 K, x1 = 1	0.418	33.82
318.15 K, x1 = 0.8091	0.713	18.65
318.15 K, x1 = 0.8366	0.681	19.82
318.15 K, x1 = 0.87	0.648	21.2
318.15 K, x1 = 0.9386	0.587	24.02
318.15 K, x1 = 1	0.536	26.08

CC(=O)[O-].CCOCCn1cc[n+](C)c1 + O
Settings	electrical conductivity [S/m]	viscosity [mPa·s]
288.15 K, x1 = 0.8294	0.352	41.8
288.15 K, x1 = 0.852	0.313	42.73
288.15 K, x1 = 0.8822	0.271	43.97
288.15 K, x1 = 0.9125	0.232	45.18
288.15 K, x1 = 0.9447	0.195	46.51
288.15 K, x1 = 1	0.13	48.34
293.15 K, x1 = 0.8294	0.415	33.23
293.15 K, x1 = 0.852	0.377	33.91
293.15 K, x1 = 0.8822	0.329	34.81
293.15 K, x1 = 1	0.18	38.07
298.15 K, x1 = 0.8294	0.463	26.38
298.15 K, x1 = 0.852	0.427	26.91
298.15 K, x1 = 0.8822	0.384	27.59
298.15 K, x1 = 0.9125	0.347	28.28
298.15 K, x1 = 1	0.247	30.01
303.15 K, x1 = 0.8294	0.551	20.99
303.15 K, x1 = 0.852	0.513	21.43
303.15 K, x1 = 0.8822	0.471	22
303.15 K, x1 = 0.9125	0.431	22.55
303.15 K, x1 = 1	0.329	23.97
308.15 K, x1 = 0.8294	0.674	16.9
308.15 K, x1 = 0.852	0.633	17.25
308.15 K, x1 = 0.9125	0.544	18.18
308.15 K, x1 = 0.9447	0.506	18.66
308.15 K, x1 = 1	0.435	19.35
313.15 K, x1 = 0.8294	0.804	13.77
313.15 K, x1 = 0.9125	0.676	14.84
313.15 K, x1 = 0.9447	0.638	15.22
318.15 K, x1 = 0.8294	0.985	11.31
318.15 K, x1 = 0.852	0.941	11.54
318.15 K, x1 = 0.8822	0.887	11.83
318.15 K, x1 = 0.9125	0.843	12.15
318.15 K, x1 = 0.9447	0.797	12.45
318.15 K, x1 = 1	0.719	12.9
